Patent US11406719B2, “Dichromic fluorescent compounds” (Washington University, priority 2008, dated 2022)
Like-named read-outs stand apart in the source and are kept apart here. Marks after values point to notes of the source that are not given here.

Assays:
[1] = Fluorescence lifetime by time correlated single photon counting (TCSPC); format: physicochemical; conditions: for Lifetime at 700 nm (ns): excitation 650 nm, emission 700 nm
Procedure: Fluorescence lifetime (FLT) was measured using time correlated single photon counting (TCSPC) technique with excitation sources NanoLed® (HORIBA Jobin Yvon Inc.) at 700 nm and 773 nm and impulse repetition rate of 1 MHz at 90° to a R928P detector (Hamamatsu Photonics, Japan). The detector was set to either 750 nm (for Nanoled 700 nm) or for 820 nm (for Nanoled 773 nm) with a 20 nm bandpass. The electrical signal was amplified by TB-02 pulse amplifier (HORIBA Jobin Yvon Inc.) and the amplified signal was fed to the constant fraction discriminator CFD (Philips, Netherlands). The first detected photon represented the start signal by the time-to-amplitude converter (TAC) and the excitation pulse triggered the stop signal. The multi-channel analyzer (MCA) recorded repetitive start-stop signals from the TAC and generated a histogram of photons as a function of time-calibrated channels (6.878 ps/channel) until the peak signal reached 10,000 counts. The lifetime was recorded on a 50 ns scale. The instrument response function was obtained by using Rayleigh scatter of Ludox-40 (Sigma-Aldrich, St. Louis, Mo.) (0.03% in Milli-Q water) in a quartz cuvette at either 700 nm or 773 nm emission. DAS6 v6.1 decay analysis software (HORIBA Jobin Yvon Inc.) was used for lifetime calculations. The goodness of fit was judged by χ^2 values and Durbin-Watson parameters and visual observations of fitted line, residuals and autocorrelation function

[2] = Steady-state absorption and fluorescence properties (spectra, quantum yield, 700/800 nm emission); format: physicochemical; conditions: for fluorescence quantum yield: relative to ICG
Procedure: The polymethine dyes and their derivatives were dissolved in […] of DMSO as stock solutions. To prevent inner effect in the fluorescent measurements, aliquots […] were diluted with the solvent of interest until the absorbance at the excitation wavelength was 0.15. UV-Vis spectra were obtained on Beckman Coulter DU 640 UV-Vis spectrometer (Beckman Coulter, Inc., Fullerton, Calif.). Emission spectra were recorded on a Fluorolog-3 spectrofluorometer (HORIBA Jobin Yvon Inc., Edison, N.J.).
Fluorescent spectra were recorded by using 620 nm and 720 nm excitation wavelengths. Fluorescent quantum yield was measured at 720 nm with slits width of 5 nm for both excitation and emission. The fluorescence quantum yield of ICG in DMSO (Ψ=0.12) was used as a reference standard. All measurements were conducted at room temperature. Excitation scans were performed in the range of 500-720 nm with monitoring at 735 nm fluorescence intensity, and 600-815 nm with monitoring at 830 nm. Excitation scans were corrected by lamp intensity using the equation F=S/R.
The ratios of the 700 nm and 800 nm emission peaks were examined in different environments and simulated dilute conditions (e.g., binding to albumin). For this, the fluorescence behavior of compound 3 was determined in different solvents (i.e., methanol, water, and DMSO), pH levels (i.e., 2.5 and 10), and in the presence of albumin (which binds the dyes in its drug binding pocket). The spectral analysis was conducted as described above in Example 2. Spectra at pH 2.5 and 10.0 were obtained by titrating 20% DMSO/water solution with diluted aqueous HCl and NaOH.

[3] = DMSO; excitation 773 nm; emission 820 nm; from Berezin et al., 2007; cited from earlier work
[4] = In vivo dichromic fluorescence imaging of mouse ears; parameters: species or system nude mouse; conditions: 2 nmol intravenously
Source text: To assess the retention of dichromic fluorescence in vivo, 2 nmol of symmetrical ICG (compound 2) and nonsymmetrical cypate-S (compound 3) were each injected intravenously in a nude mouse. Mouse ears were imaged with a Li-Cor Odyssey system at two excitation (680 nm and 780 nm) and emission (700 and 800 nm) channels. […] Thus, the dual fluorescence contrast mechanism is tenable in vivo.

[5] = cited from earlier work
casein kinase II = experiment: Kinase-Glo Luminescent Kinase Assay; format: cell-based; conditions: A549 cells
Procedure: The following example was designed to further explore the use of cypate diserine (6) to monitor the activity of endogenous kinases. A549 cells (which express casein kinase II) were incubated with a standard casein kinase II peptide substrate or compound 6 (which is not specific for casein kinase II). Kinase activity was measured with the Kinase-Glo Luminescent Kinase Assay Platform (Promega Corp., Madison, Wis.) per the manufacturer's instructions. This assay measures free ATP in the reaction mixture. As phosphorylation increases, the levels of ATP decrease, and consequently, luminescence is inversely proportional to kinase activity.

A549 cells = experiment: Two-channel imaging of fluorescence enhancement of A549 cells; format: cell-based, human; conditions: 1 μM
Procedure: It was hypothesized that since cypate diserine could be phosphorylated in cells, it is possible that the initial phosphorylation of one serine (as indicated by an increase in the 700 nm channel) could be followed by phosphorylation of the second serine. […] To test this notion, A549 cells were incubated with of 1 μM of compound 6.

caspase-3 [6] = biological target: T1, caspase-3 (Homo sapiens, UniProt P42574); parameters: purchased CalBiochem; conditions: read-out: KM of the standard; cited from earlier work
T1 sequence (P42574 29-175 limits assumed): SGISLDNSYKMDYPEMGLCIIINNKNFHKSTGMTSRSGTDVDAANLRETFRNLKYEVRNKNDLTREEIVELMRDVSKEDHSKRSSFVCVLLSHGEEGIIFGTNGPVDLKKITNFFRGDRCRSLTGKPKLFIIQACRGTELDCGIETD
T1 sequence (P42574 176-277 limits assumed): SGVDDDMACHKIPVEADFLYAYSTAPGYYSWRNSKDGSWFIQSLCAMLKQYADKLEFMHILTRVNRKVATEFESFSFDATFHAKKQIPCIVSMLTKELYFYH

caspase-3 [7] = biological target: T1, caspase-3; experiment: In vivo imaging of caspase-3 activity in mouse ears; parameters: species or system nude mouse; conditions: 2 nmol intravenously; caspase-3-injected ear relative to saline-injected ear
Procedure: To assess the NIR optical imaging of caspase-3 activity, 2 nmol of the pre-quenched (FRET) cypate-DEVD (SEQ ID NO:4) probe was injected intravenously in a nude mouse, followed by intradermal injection of caspase-3 solution (right pinna) or saline (left pinna). This approach provides positive and negative controls in one set of experiments. Mouse ears were imaged with Li-Cor Odyssey single-channel (805 nm) NIR imaging system (Li-Cor Biosciences, Lincoln, Neb.). Images were captured before treatment, after injection of a probe and after intradermal injection of caspase-3 in the ear.

caspase-3 [8] = biological target: T1, caspase-3; experiment: Enzyme kinetics of NIR caspase-3 probe; format: biochemical; parameters: purchased CalBiochem; conditions: non-linear fit; 37° C.
Procedure: To examine the kinetics, a caspase-3 substrate was prepared using the standard FRET method where the tetrapeptide Asp-Glu-Val-Asp (DEVD—SEQ ID NO:4) was flanked by two cypate dyes (cypate-DEVD (SEQ ID NO:4) probe). Enzyme assays were performed with a fluorometer by using commercially available recombinant caspase-3 (CalBiochem). An aliquot of the cypate-DEVD (SEQ ID NO:4) probe (substrate concentrations ranged from 70 nM to 100 μM) was dissolved in DMSO and added to a buffer comprising 10 mM PIPES, pH 7.4, 2 mM EDTA, 0.1% CHAPS, and 5 mM DTT. Five units of the enzyme were added, and the assay was performed at 37° C. A control experiment under the same conditions but with no enzyme was conducted at the same time. The apparent Km for the cypate-DEVD (SEQ ID NO:4) probe for caspase-3 was calculated with the Cheng-Prusoff equation: […], where [S] is the concentration of substrate and Ki is the published inhibitory constant of DEVD (SEQ ID NO:4)-CHO. To generate EC50 values, initial rates were determined from the linear portion of substrate hydrolysis and were plotted against log-inhibitor concentration (DEVD (SEQ ID NO:4)-CHO). The apparent kcat values were calculated using the equation kcat=V(Km+[S])/[Et][S], where [S] is the concentration of substrate, [E] is the concentration of enzyme, and Vis the initial rate of cleavage. […]

Compound: CC1(C)C(/C=C/C=C/C=C/C=C2/N(CCC(=O)O)c3ccc4ccccc4c3C2(C)C)=[N+](CCC(=O)[O-])c2ccc3ccccc3c21 [Compound 1, cypate, reference compound]
- Lifetime at 700 nm (ns) ([1]; DMSO): Weak signal
- fluorescence lifetime at 800 nm ([1]; in DMSO): 0.86 ns
- contribution of the 700 nm emission in the overall fluorescence spectra [2]: 18%
- Lifetime at 800 nm (ns) [3]: 0.87^c ns

Compound: CC1(C)C(/C=C/C=C/C=C/C=C2/N(CCCCS(=O)(=O)O)c3ccc4ccccc4c3C2(C)C)=[N+](CCCCS(=O)(=O)[O-])c2ccc3ccccc3c21 [Compound 2, indocyanine green, reference compound]
- Lifetime at 700 nm (ns) ([1]; DMSO): 1.50^d ns
- contribution of the 700 nm emission in the overall fluorescence spectra [2]: 24%
- visibility of blood vessels in the 700 and 800 nm channels [4]: showed the blood vessels only at the 800 nm channel
- Lifetime at 800 nm (ns) [3]: 0.97^c ns
- fluorescence quantum yield (reference standard) ([5]; in DMSO): 0.12
- fluorescence quantum yield (reference) ([5]; in methanol): 0.090

Compound: CC1(C)C(/C=C/C=C/C=C/C=C2\N(CCC(=O)NC(CO)C(=O)O)c3ccc4ccccc4c3C2(C)C)=[N+](CCC(=O)NC(CO)C(=O)O)c2ccc3ccccc3c21 (stereo not drawn) [Compound 6, di-serine cypate]
- molar absorption coefficient ([2]; methanol): about 220,000 M^−1 cm^−1
- ratio of the 700/800 nm emission peaks ([2]; methanol): 0.36
- fluorescence quantum yield ([2]; methanol): 0.059
- luminescence (inversely proportional to kinase activity) (casein kinase II): concentration-dependent decreases in luminescence
- fluorescence in the 700 nm and 800 nm emission channels (A549 cells; 5 and 15 minutes): early fluorescence increase in the 700 nm emission channel
- fluorescence in the 700 nm and 800 nm emission channels (A549 cells; 30 and 45 minutes): fluorescence enhancement in both channels

Compound: CC1(C)C(/C=C/C=C/C=C/C=C2\N(CCC(=O)NC(COP(=O)(O)O)C(=O)O)c3ccc4ccccc4c3C2(C)C)=[N+](CCC(=O)NC(CO)C(=O)O)c2ccc3ccccc3c21 (stereo not drawn) [Compound 7, monophosphoserine/serine cypate derivative]
- increase of the 700/800 nm ratio relative to symmetrical compound 6 ([2]; methanol): 7 fold
- molar absorption coefficient ([2]; methanol): about 220,000 M^−1 cm^−1
- ratio of the 700/800 nm emission peaks ([2]; methanol): 2.5
- fluorescence quantum yield ([2]; methanol): 0.057

Compound: Ac-DEVD-pNA [Ac-DEVD (SEQ ID NO:4)-pNA]
- Km (caspase-3 [6]): 11 µM

Compound: cypate-DEVD (SEQ ID NO:4) probe: caspase-3 FRET substrate: tetrapeptide Asp-Glu-Val-Asp flanked by two cypate dyes
- magnitude and area of increase of fluorescence intensity (805 nm) (caspase-3 [7]): significantly greater in the caspase-3-injected ear
- Km (caspase-3 [8]): 15 ± 3 µM
- kcat (caspase-3 [8]): 1.02 ± 0.06 s⁻¹

Compound: cypate-NH2 [Compound 4]
- Lifetime at 700 nm (ns) ([1]; DMSO): 1.40 ns
- Lifetime at 800 nm (ns) ([1]; DMSO, excitation 773 nm, emission 820 nm): 0.90 ns
- contribution of the 700 nm emission in the overall fluorescence spectra [2]: 82%
